We go through 2 compounds from patent US10358448B2, “Therapeutic compounds for pain and synthesis thereof” (priority 2015, dated 2019).

The test system of assay [1] is Taxol model of neuropathic pain. Nature of the assay: Taxol animal model for neuropathic pain in mice. The assay is classed as in vivo. An excerpt:
(§1) Table 7 summarizes the activity of Formula 1 in mice models of neuropathic pain following repeated daily administration using different routes of administration.

Assay [2] concerns CCl model of neuropathic pain. Nature of the assay: CCl animal model for neuropathic pain in mice. The format is in vivo. Particulars: SC, 150 mg/kg, repeated daily administration.
Excerpt: as §1

Setting [3] is: PO, 30 mg/kg, repeated daily administration.
Where [4] appears, read: SC, doses tested 1, 3, 10 mg/kg, repeated daily administration.

Values joined by “and” are separate entries in the source; they are usually repeats but may differ in a detail not shown here. Equal values may be shown once.

Take `CC(C)(C)C(=O)O[C@@H]1C2[C@H]3C[C@H](C[C@@H]1N3CC1CC1)CN2C(=O)CC(F)(F)F` (stereo partly drawn) [Formula 1, (2S,3S,6R,7aR)-1-(cyclopropylmethyl)-4-(3,3,3-trifluoropropanoyl)octahydro-1H-2,6-methanopyrrolo[3,2-b]pyridin-3-yl pivalate]: in assay [1] (setting [3]), the “Duration of activity at maximum effect” value stood at 3 days, the “Level of activity (% of maximum effect-baseline)” value was found to be 100% and the “Peak of activity (T)” value is given as 1-24 H. Besides, the “Dose of maximum activity” value in assay [1] (PO, dose tested 30 mg/kg) is given as less than 30 mg/kg. Moreover, the “Dose of maximum activity” value in assay [1] (SC, doses tested 1, 3, 10 mg/kg) is 1 mg/kg. Also, in assay [1] (setting [4]), the “Duration of activity at maximum effect” value was 3 days and the “Level of activity (% of maximum effect-baseline)” value is reported as 100%.

As for `NCC1(CC(=O)O)CCCCC1` [Gabapentin], in assay [2], the “Duration of activity at maximum effect” value was 4-6 H; the “Level of activity (% of maximum effect-baseline)” value was >100% and 64%; the “Peak of activity (T)” value is recorded as 2-3 H.
